Results on 4 compounds are retold here after patent publication US10450378B2, “Cytotoxic and anti-mitotic compounds, and methods of using the same” (priority 2014, dated 2019).

Read-outs that look alike come from different tables or passages of the source.

Usually EC50 stands for the concentration that produces a half-maximal response.

Holding throughout (experiment): Cellular cytotoxicity of compounds of Formula I, Example 3.1
Holding throughout (assay type): cell-based

Test [1] relates to Human Pancreatic cell line BxPC-3. The conditions noted are these: five nights, CellTiter-Glo. The protocol:
(§1) Compounds were tested on one or more of Human T-cell leukemia cell line Jurkat (ATCC: TIB-152); Human breast cancer cell lines HCC1954 (ATCC: CRL-2338) and JIMT-1 (DSMZ: ACC 589); Human Pancreatic cell line BxPC-3 (ATCC: CRL.1687), Human ovarian adenocarcinoma cell line SK-OV-3 (ATCC: HTB-77) and Human gastric carcinoma cell line NCI-N87 (ATCC: CRL. 5822); to assess their cytotoxicity.
(§2) Briefly, cells were obtained from commercial sources and cultured as described in the product sheet provided. Cells were removed from their culture vessels and the resulting cell suspension was counted using a ViCell (Beckman Coulter), then seeded at 25,000 cells/mL (2,500 cells/well) in Costar 3904 black walled, flat bottomed 96-well plates (cells were seeded in the inner 60 wells of 96-well TC plates, and outer edge wells filled with water). Adherent cell lines were incubated for one night at 37° C./5% CO2 atmosphere to allow the cells to attach to the microtiter plate surface, while suspension (Jurkat) cells were plated immediately before use. Cytotoxins were dissolved and serially diluted in dimethyl sulfoxide and then the solutions were added to complete growth medium at five-times the desired maximum final concentration. The cytotoxins were then titrated in growth medium, normally 1:3, over eight steps. A control with no test article present (growth medium alone) was included on each microtiter plate in sextuplicate. The prepared toxin titrations were added (25 μL/well) in triplicate to each cell line assayed. The cells and titrations were incubated at 37° C./5% CO2 for three nights (Jurkat) and five nights (all other cell lines). After the incubation, cell viability was measured using CellTiter-Glo® by adding 30 μL of prepared CellTiter-Glo® reagent to each assay well. The mixtures were incubated for at least twenty minutes in the dark prior to measuring emitted luminescence using a microplate luminometer (500 ms integration time). The collected relative luminescence units (RLU) were converted to % cytotoxicity using the growth medium alone control mentioned above (% Cytotoxicity=1-[well RLU/average medium alone control RLU]×100%).

Test [2] concerns Human T-cell leukemia cell line Jurkat. The conditions noted are these: Homo sapiens, Jurkat, read-out: EC50 (nM) Jurkat. The protocol:
as §1, §2

For test [3], the system named is Human gastric carcinoma cell line NCI-N87. The conditions noted are these: five nights, CellTiter-Glo. The protocol: as §1, §2

Take `CC[C@H](C)[C@@H]([C@@H](CC(=O)N1CCC[C@H]1[C@H](OC)[C@@H](C)C(=O)NS(=O)(=O)Cc1ccc(CNC(=O)C(F)(F)F)cc1)OC)N(C)C(=O)[C@@H](NC(=O)[C@H](C(C)C)N(C)C)C(C)C` [Compound 25, (S)-2-((S)-2-(Dimethylamino)-3-methylbutanamido)-N-((3R,4S,5S)-3-methoxy-1-((S)-2-((1R,2R)-1-methoxy-2-methyl-3-oxo-3-(((4-((2,2,2-trifluoroacetamido)methyl)phenyl)methyl)sulfonamido)propyl)pyrrolidin-1-yl)-5-methyl-1-oxoheptan-4-yl)-N,3-dimethylbutanamide]: the EC50 in test [1] is over 100 nM; in test [2] (three nights, CellTiter-Glo) it was 34.3 nM; in test [3], over 100 nM.
As for `CC[C@H](C)[C@@H]([C@@H](CC(=O)N1CCC[C@H]1[C@H](OC)[C@@H](C)C(=O)N[C@@H](Cc1ccccc1)C(=O)NS(=O)(=O)Cc1ccc(CNC(=O)C(F)(F)F)cc1)OC)N(C)C(=O)[C@@H](NC(=O)[C@H](C(C)C)N(C)C)C(C)C` [Compound 27, (S)-2-((S)-2-(Dimethylamino)-3-methylbutanamido)-N-((3R,4S,5S)-3-methoxy-1-((S)-2-((1R,2R)-1-methoxy-2-methyl-3-oxo-3-(((S)-1-oxo-3-phenyl-1-(((4-((2,2,2-trifluoroacetamido)methyl)phenyl)methyl)sulfonamido)propan-2-yl)amino)propyl)pyrrolidin-1-yl)-5-methyl-1-oxoheptan-4-yl)-N,3-dimethylbutanamide], the results for the EC50 in test [1], in test [2] and in test [3] were 19 nM, 24.2 nM and 17.4 nM, respectively.
Regarding `CC[C@H](C)[C@@H]([C@@H](CC(=O)N1CCC[C@H]1[C@H](OC)[C@@H](C)C(=O)N[C@@H](Cc1ccccc1)C(=O)NS(=O)(=O)Cc1ccc(CN)cc1)OC)N(C)C(=O)[C@@H](NC(=O)[C@H](C(C)C)N(C)C)C(C)C` [Compound 28, (S)-N-((3R,4S,5S)-1-((S)-2-((1R,2R)-3-(((S)-1-(((4-(Aminomethyl)phenyl)methyl)sulfonamido)-1-oxo-3-phenylpropan-2-yl)amino)-1-methoxy-2-methyl-3-oxopropyl)pyrrolidin-1-yl)-3-methoxy-5-methyl-1-oxoheptan-4-yl)-2-((S)-2-(dimethylamino)-3-methylbutanamido)-N,3-dimethylbutanamide], the EC50 in test [1] was over 100 nM; in test [2] (three nights, CellTiter-Glo), about 100 nM; in test [3] it was over 100 nM.
Regarding `CC[C@H](C)[C@@H]([C@@H](CC(=O)N1CCC[C@H]1[C@H](OC)[C@@H](C)C(=O)NS(=O)(=O)c1ccc(C(=O)OC)cc1)OC)N(C)C(=O)[C@@H](NC(=O)[C@H](C(C)C)N(C)C)C(C)C` [Compound 34, Methyl 4-(N-((2R,3R)-3-((S)-1-((3R,4S,5S)-4-((S)-2-((S)-2-(Dimethylamino)-3-methylbutanamido)-N,3-dimethylbutanamido)-3-methoxy-5-methylheptanoyl)pyrrolidin-2-yl)-3-methoxy-2-methylpropanoyl)sulfamoyl)benzoate], the EC50 in test [1] is over 300 nM; in test [2] (three nights, CellTiter-Glo), over 100 nM; in test [3], over 300 nM.
